{"source": "patent US8242136B2", "about": "“Use of glucosidase inhibitors for therapy of mucovisidosis” (Centre National de la Recherche Scientifique (C.N.R.S.), priority 2003, dated 2012)", "key": {"delF508-CFTR [1]": {"system": "delF508-CFTR", "test": "Iodide efflux on CF15 cells: addressing of delF508 after pre-treatment, stimulation with forskolin + genistein", "format": "cell-based, human", "conditions": "CF15 cells treated with 100μM for two hours at 37° C.; Forskolin 10μM + Genistein 30μM; FIG. 7"}, "delF508-CFTR [2]": {"system": "delF508-CFTR", "test": "Iodide efflux on CF15 cells: addressing of delF508 after pre-treatment, stimulation with forskolin + genistein", "format": "cell-based, human", "method": "CF15 cells: CF15 cells are human epithelial cells of nasal origin which express the ΔF508-CFTR gene.\nThe measurements of chloride ion transport in the cells were carried out using the radioactive iodide efflux technique (Becq et al., 1999; Dormer et al., 2001). The tracer (^125I) is incorporated into the intracellular medium. Then, the quantity of radiotracer leaving the cell is counted after the addition of different pharmacological agents. The iodide is used as a tracer of the chloride ion transport. It has been shown that the two radiotracers ^125I and ^36Cl could be considered as equivalents for measuring the activity of a chloride channel (Venglarick et al., 1990). ^125I moreover has the advantage of having a short life compared with that of […] (respective half-lives: 30 days and 300,000 years). The cells are cultured on 24-well plates in an appropriate medium. 2 rinsings with efflux medium (NaCl: 136.6 mM, KCl: 5.4 mM, KH2PO4: 0.3 mM, NaH2PO4: 0.3 mM, NaHCO3: 4.2 mM, CaCl2: 1.3 mM, MgCl2: 0.5 mM, MgSO4: 0.4 mM, HEPES: 10 mM, D-glucose: 5.6 mM) are carried out in order to eliminate the dead cells which release the radioactivity in an anarchic manner. Then, the cells are incubated with 500 μl of charge (1 μCi/ml of ^125INa) for 30 minutes for CHO-WT or 1 hour for CF15 and Calu-3. The iodide is in equilibrium on both sides of the cell membrane. The robot (MultiPROBE, Packard) carries out the following stages: The charge medium is rinsed with efflux medium in order to eliminate the extracellular radioactivity. The supernatant is collected every minute in haemolysis tubes and the medium is replaced by an equivalent volume (500 μl). The samples taken in the first 3 minutes are not subjected to the addition of a drug, they make it possible to obtain a stable base line, characterizing the passive exit of the I^− ions. The following 7 samples are obtained in the presence of the molecule to be tested. At the end of the experiment, the cells are lysed by the addition of 500 μl of NaOH (0.1 N)/0.1% SDS (30 minutes), thus, the radioactivity remaining inside the cell can be determined. The radioactivity present in the haemolysis tubes is counted in counts per minute (cpm) using a gamma counter (Cobra II, Packard). The results in cpm are expressed in the form of exit speed of radioactive iodide (R) according to the following formula: R (min^−1)=[ln(^125I t1)−ln(^125I t2)]/(t1−t2) with ^125I t1: cpm at time t1; ^125I t2: cpm at time t2. This iodide flow is represented in the form of a curve. In order to quantify the exit of iodide due to the administration of the molecule tested, the following relative flow is calculated which makes it possible to be rid of the base flow: Relative speed (min^−1)=Rpeak−Rbasal. […] The results are presented in the form of an average+/−SEM. Student's statistical test is used in order to compare the effects of the drugs with the controls (the values corresponding to P<0.01 are considered statistically significant).\nFor each experiment, the addition of a cocktail (Forskolin 10 μM, Genistein 30 μM) allows the activation of the CFTR when the latter is on the membrane. […]\nThe CF15 cells were pre-treated for 2 hours with NB-DNJ (500μM). […] The CFTR activity is measured in iodide efflux (n=8 for each condition) after stimulation by fsk 10μM+Gst 30μM.\nThe CF15 cells were pre-treated for 2 hours with NB-DNJ at different concentrations. The CFTR activity is measured in iodide efflux (n=4 for each concentration) after stimulation with fsk 10μM+Gst 30μM."}, "wild-type CFTR [3]": {"system": "wild-type CFTR", "test": "Iodide efflux on Calu-3 cells pre-treated for 2 hours: addressing of wild-type CFTR", "format": "cell-based, human", "conditions": "Calu-3 cells pre-incubated 2 hours at 37° C. (NB-DNJ 500μM or MPB-91 250μM), stimulated with 250μM MPB-91", "method": "(§1) Calu-3 cells: Calu-3 cells are human epithelial cells of pulmonary origin which express the wild-type CFTR gene.\n(§2) The measurements of chloride ion transport in the cells were carried out using the radioactive iodide efflux technique (Becq et al., 1999; Dormer et al., 2001). The tracer (^125I) is incorporated into the intracellular medium. Then, the quantity of radiotracer leaving the cell is counted after the addition of different pharmacological agents. The iodide is used as a tracer of the chloride ion transport. […] 2 rinsings with efflux medium (NaCl: 136.6 mM, KCl: 5.4 mM, KH2PO4: 0.3 mM, NaH2PO4: 0.3 mM, NaHCO3: 4.2 mM, CaCl2: 1.3 mM, MgCl2: 0.5 mM, MgSO4: 0.4 mM, HEPES: 10 mM, D-glucose: 5.6 mM) are carried out in order to eliminate the dead cells which release the radioactivity in an anarchic manner. […] The robot (MultiPROBE, Packard) carries out the following stages: The charge medium is rinsed with efflux medium in order to eliminate the extracellular radioactivity. […] At the end of the experiment, the cells are lysed by the addition of 500 μl of NaOH (0.1 N)/0.1% SDS (30 minutes), thus, the radioactivity remaining inside the cell can be determined. The radioactivity present in the haemolysis tubes is counted in counts per minute (cpm) using a gamma counter (Cobra II, Packard). […]"}, "CHO-WT cells": {"system": "CHO-WT cells", "test": "MTT cytotoxicity test on CHO-WT cells", "format": "cell-based, Chinese Hamster", "conditions": "2 hours; for cytotoxicity (MTT): CHO cells", "method": "CHO-WT cells: CHO (Chinese Hamster Ovary) cells are fibroblasts which have been transfected with the wild-type CFTR gene (CFTR-WT). These cells will therefore overexpress the CFTR protein.\nThe MTT toxicity test is a colorimetric test which is based on the ability of the mitochondrial dehydrogenases to metabolize MTT (yellow tetrazolium salt) to formazan (purple). The absorbance, proportional to the concentration of converted dye, can then be measured by spectrophotometry. The cells are incubated on 96-well plates in the presence of the agent to be tested for 2 hours. 3 controls are carried out: 100% live cells: cells without agent; 0% live cells: cells left in the open air; blank: medium without cells. […] Then they are incubated for 4 hours with 100 μl of RPMI solution supplemented with MTT (0.5 mg/ml). The medium is then eliminated, the addition of 100 μl of DMSO makes it possible to solubilize the converted dye (formazan). The absorbance is measured by spectrophotometry at: 570 nm (purple); 630 nm (background noise). In order to be rid of the background noise, the following calculation is carried out: ODreal=OD570 nm−OD630 nm.\nFor the purpose of testing the cytotoxicity of NB-DNJ, CHO-WT cells were incubated for 2 hours with different concentrations of inhibitors before being subjected to the cell viability test with MTT.\n2 hours of treatment of the cells."}, "wild-type CFTR [4]": {"molecular_target": "T1, wild-type CFTR (Homo sapiens, UniProt P13569)", "T1 construct": "Calu-3 cells are human epithelial cells of pulmonary origin which express the wild-type CFTR gene; endogenous in cells; host or cells: Calu-3 human pulmonary epithelial cells", "T1 sequence (P13569 whole entry)": "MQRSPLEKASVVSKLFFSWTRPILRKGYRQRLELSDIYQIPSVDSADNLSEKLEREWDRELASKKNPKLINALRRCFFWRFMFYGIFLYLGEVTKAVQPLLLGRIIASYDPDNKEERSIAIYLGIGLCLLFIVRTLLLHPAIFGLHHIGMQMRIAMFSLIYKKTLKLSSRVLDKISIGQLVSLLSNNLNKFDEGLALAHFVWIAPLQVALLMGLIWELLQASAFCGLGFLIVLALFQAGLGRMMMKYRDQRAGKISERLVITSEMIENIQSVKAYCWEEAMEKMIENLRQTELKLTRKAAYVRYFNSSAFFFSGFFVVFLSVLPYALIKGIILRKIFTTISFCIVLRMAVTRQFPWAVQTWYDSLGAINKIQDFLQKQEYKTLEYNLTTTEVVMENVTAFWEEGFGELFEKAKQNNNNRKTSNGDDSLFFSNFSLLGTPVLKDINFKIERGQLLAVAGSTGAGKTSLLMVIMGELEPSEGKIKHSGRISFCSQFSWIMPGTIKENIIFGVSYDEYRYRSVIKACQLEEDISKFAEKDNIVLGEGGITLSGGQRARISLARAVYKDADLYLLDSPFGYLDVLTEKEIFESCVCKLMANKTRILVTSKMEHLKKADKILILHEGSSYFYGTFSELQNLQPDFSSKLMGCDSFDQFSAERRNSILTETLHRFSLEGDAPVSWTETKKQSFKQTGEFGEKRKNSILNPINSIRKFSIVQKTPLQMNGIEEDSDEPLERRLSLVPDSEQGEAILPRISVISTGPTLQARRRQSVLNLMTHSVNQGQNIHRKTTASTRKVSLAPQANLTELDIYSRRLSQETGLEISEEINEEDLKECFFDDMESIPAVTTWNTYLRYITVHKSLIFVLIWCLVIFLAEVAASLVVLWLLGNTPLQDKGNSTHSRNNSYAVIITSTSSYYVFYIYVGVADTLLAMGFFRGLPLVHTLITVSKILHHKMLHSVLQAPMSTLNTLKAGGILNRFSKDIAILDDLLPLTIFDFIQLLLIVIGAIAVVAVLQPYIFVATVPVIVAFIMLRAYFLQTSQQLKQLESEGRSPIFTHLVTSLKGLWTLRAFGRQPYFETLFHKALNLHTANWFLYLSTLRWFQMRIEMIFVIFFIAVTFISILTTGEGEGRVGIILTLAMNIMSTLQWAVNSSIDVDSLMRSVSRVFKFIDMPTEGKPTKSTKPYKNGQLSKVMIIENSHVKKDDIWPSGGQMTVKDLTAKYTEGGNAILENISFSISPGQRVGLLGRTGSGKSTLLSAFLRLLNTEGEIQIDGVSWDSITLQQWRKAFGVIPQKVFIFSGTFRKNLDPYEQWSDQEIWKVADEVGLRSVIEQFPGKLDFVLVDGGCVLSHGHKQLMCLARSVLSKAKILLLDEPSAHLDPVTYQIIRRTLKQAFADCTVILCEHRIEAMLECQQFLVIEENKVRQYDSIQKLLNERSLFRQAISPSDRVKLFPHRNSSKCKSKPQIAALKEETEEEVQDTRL", "test": "Iodide efflux on Calu-3 cells: compound tested as activator", "format": "cell-based", "conditions": "fsk 5μM, MPB-91 250μM, NB-DNJ 500μM, n=8", "method": "as §1, §2"}, "tissues in culture": {"system": "tissues in culture", "conditions": "high concentration (2 mM); cited from earlier work"}, "[5]": {"conditions": "patients suffering from acquired immunodeficiency syndrome; cited from earlier work"}, "delF508-CFTR [6]": {"system": "delF508-CFTR", "test": "Immunolabelling / cell imaging of delF508 location in CF15 cells", "format": "cell-based, human", "conditions": "CF15 cells after treatment", "method": "Immunolabelling makes it possible to visualize the cell location of the CFTR protein by means of an anti-CFTR primary antibody (Ab) then a primary anti-antibody secondary antibody labelled with Cy3 fluorophore. The cells are previously seeded on lamellae in appropriate culture medium. 3 washings with TBS (NaCl: 157 mM, Tris base: […], pH 7.4) of 5 minutes each are carried out. The cells are then fixed by the addition of TBS-paraformadehyde (3%) over 20 minutes. After 3 washings with TBS (5 minutes), the cells are incubated with 0.1% TBS-triton (10 minutes) which allows the formation of holes in the cell membrane, then 3 washings with TBS are once again carried out before bringing the cells together with 0.5% TBS-BSA-0.05% saponin for 1 hour. The cells are then incubated with the CFTR anti-C terminal primary antibody (2μg/ml) for 1 hour. 3 washings with TBS-BSA-saponin of 5 minutes each are carried out before incubation with the GAM-cy3 secondary antibody ( 1/400) for 1 hour. Following two 5-minute washings with TBS, the nuclei are labelled by incubation with Topro3 ( 1/1000) for 5 minutes. Finally, the lamellae can be mounted on slides after three last 5-minute washings with TBS. […] In order to differentiate between Cy3 and Topro3 labelling the colour of fluorescence of Topro3 has been changed to blue (colour of the nuclei). […]"}, "delF508": {"system": "delF508", "conditions": "pulmonary epithelial cells; cited from earlier work"}, "[7]": {"conditions": "CF15 cells, stimulation Forskolin 10μM + Genistein 30μM"}}, "note": "“Also recorded” adds a separate entry of the source."}
{"smiles": "C[C@@H]1NC[C@@H](O)[C@H](O)[C@@H]1O", "note": "[DFJ]", "values": [{"measurement": "addressing of delF508 and function as ion transporter (iodide efflux)", "setting": "delF508-CFTR [1]", "result": "no significant effect"}]}
{"smiles": "CCCCN1C[C@H](O)[C@@H](O)[C@H](O)[C@H]1CO", "note": "[NB-DNJ, N-butyl-deoxynojirimycin]", "values": [{"measurement": "addressing of delF508 and function as ion transporter (iodide efflux)", "setting": "delF508-CFTR [2]; CF15 cells pre-treated 2 hours at 37° C. with 500μM, stimulation fsk 10μM + Gst 30μM, MPB-91 250μM = 100%", "result": "restores addressing of the delF508 protein and allows the latter to function as an ion transporter"}, {"measurement": "EC50", "setting": "delF508-CFTR [2]; CF15 cells pre-treated 2 hours, stimulation fsk 10μM + Gst 30μM, FIG. 2", "result": 123, "unit": "µM"}, {"measurement": "CFTR activity (iodide efflux) after 2 hours pre-treatment", "setting": "wild-type CFTR [3]", "result": "the level of CFTR activity is not affected"}, {"measurement": "cytotoxicity (MTT)", "setting": "CHO-WT cells; 5μM", "result": "no cytotoxicity is measurable"}, {"measurement": "cytotoxicity (MTT)", "setting": "CHO-WT cells; 50μM", "result": "no cytotoxicity is measurable"}, {"measurement": "cytotoxicity (MTT)", "setting": "CHO-WT cells; 500μM", "result": "A low toxicity appears"}, {"measurement": "cell viability / cytotoxicity (MTT)", "setting": "CHO-WT cells; CHO-WT cells, all concentrations", "result": "exhibits no cell cytotoxicity"}, {"measurement": "activation of iodide efflux (CFTR activity / anionic transports)", "setting": "wild-type CFTR [4]", "result": "is not an activator of the wild-type CFTR nor of other anionic transports of these cells; also recorded: has no effect"}, {"measurement": "cytotoxicity on tissues in culture", "setting": "tissues in culture", "result": "is not cytotoxic"}, {"measurement": "tolerability in patients", "setting": "[5]", "result": "well tolerated"}, {"measurement": "location of delF508 protein by cell imaging", "setting": "delF508-CFTR [6]", "result": "located the delF508 protein in the plasmatic membrane compartments"}]}
{"smiles": "OC[C@H]1NC[C@H](O)[C@@H](O)[C@H]1O", "note": "[DGJ]", "values": [{"measurement": "addressing of delF508 and function as ion transporter (iodide efflux)", "setting": "delF508-CFTR [1]", "result": "no significant effect"}]}
{"smiles": "CCCCc1c(O)c2cccc(Cl)c2[n+]2ccccc12", "note": "[MPB-91]", "values": [{"measurement": "CFTR activity (iodide efflux) after 2 hours pre-treatment", "setting": "wild-type CFTR [3]", "result": "not significantly different"}, {"measurement": "activation of iodide efflux (CFTR activity / anionic transports)", "setting": "wild-type CFTR [4]", "result": "activate an iodide efflux"}]}
{"smiles": "CCCCN1C[C@@H](O)[C@@H](O)[C@H](O)[C@H]1CO", "note": "[nB-DMJ]", "values": [{"measurement": "EC50", "setting": "delF508-CFTR [2]; [7]", "result": 113, "unit": "µM"}, {"measurement": "addressing of delF508 and function as ion transporter (iodide efflux)", "setting": "delF508-CFTR [1]", "result": "restores an addressing of the delF508 protein and allows the latter to function as an ion transporter"}]}
{"smiles": "CCCCN1C[C@H](O)[C@@H](O)[C@@H](O)[C@H]1CO", "note": "[nB-DGJ]", "values": [{"measurement": "addressing of delF508 and function as ion transporter (iodide efflux)", "setting": "delF508-CFTR [1]", "result": "no significant effect"}]}
{"smiles": "O[C@H]1[C@H](O)[C@@H](O)CN2CC[C@H](O)[C@H]12", "note": "[castanospermine]", "values": [{"measurement": "presence of delF508 at the surface of cells", "setting": "delF508", "result": "had an effect on the renewal of the presence of delF508 at the surface of pulmonary epithelial cells"}]}
{"smiles": "OCC1NCC(O)C(O)C1O", "note": "(stereo not drawn) [DMJ]", "values": [{"measurement": "EC50", "setting": "delF508-CFTR [2]; [7]", "result": 134, "unit": "µM"}, {"measurement": "addressing of delF508 and function as ion transporter (iodide efflux)", "setting": "delF508-CFTR [1]", "result": "restores an addressing of the delF508 protein and allows the latter to function as an ion transporter"}]}
{"smiles": "CCCCN1C[C@@H](O)[C@H](O)[C@H](O)[C@@H]1C", "note": "[nB-DFJ]", "values": [{"measurement": "addressing of delF508 and function as ion transporter (iodide efflux)", "setting": "delF508-CFTR [1]", "result": "no significant effect"}]}
{"smiles": "OC[C@H]1NC[C@H](O)[C@@H](O)[C@@H]1O", "note": "[DNJ]", "values": [{"measurement": "EC50", "setting": "delF508-CFTR [2]; [7]", "result": "> 250", "unit": "µM"}, {"measurement": "addressing of delF508 and function as ion transporter (iodide efflux)", "setting": "delF508-CFTR [1]", "result": "restores an addressing of the delF508 protein and allows the latter to function as an ion transporter"}]}
